The record followed here is patent publication US9149465B2, “Isoxazolines as inhibitors of fatty acid amide hydrolase” (Infinity Pharmaceuticals, Inc., priority 2009, dated 2015).

Structures are written as SMILES.

The Ki is a dissociation constant, usually derived from enzyme kinetics or from competition with a known ligand.

The target of the experiment is T1, human FAAH (Homo sapiens, UniProt O00519).
T1 construct: host or cells: COS-7 cells, transient transfection; 13,000 g membrane fraction solubilised in 1% Triton X-100
T1 sequence (O00519 1-579): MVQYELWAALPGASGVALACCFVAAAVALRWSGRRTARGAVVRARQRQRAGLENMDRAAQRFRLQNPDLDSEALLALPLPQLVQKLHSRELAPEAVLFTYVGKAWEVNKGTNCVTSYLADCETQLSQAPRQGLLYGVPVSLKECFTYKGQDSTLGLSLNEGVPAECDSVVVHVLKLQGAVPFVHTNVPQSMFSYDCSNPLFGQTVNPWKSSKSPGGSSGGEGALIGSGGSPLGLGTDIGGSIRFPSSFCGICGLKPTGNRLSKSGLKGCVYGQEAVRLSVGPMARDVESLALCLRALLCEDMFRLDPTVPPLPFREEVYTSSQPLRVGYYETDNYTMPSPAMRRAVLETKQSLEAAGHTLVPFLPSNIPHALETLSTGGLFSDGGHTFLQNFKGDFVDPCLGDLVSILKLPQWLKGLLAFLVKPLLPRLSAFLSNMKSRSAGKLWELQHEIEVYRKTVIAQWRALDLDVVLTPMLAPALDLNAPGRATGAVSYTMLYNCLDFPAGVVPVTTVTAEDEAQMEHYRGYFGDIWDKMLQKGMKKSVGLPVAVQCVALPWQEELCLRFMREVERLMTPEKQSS
In words: Inhibition of human FAAH (AMC arachidonoyl amide fluorescence assay). The format is biochemical. Particulars: inhibitor preincubated 30 minutes at room temperature; 20 μM AMC arachidonoyl amide; 4 hours; read-out: Activity (Ki, inhibitors of human FAAH). The protocol:
Human FAAH Preparation: COS-7 cells were split the day before, 1:5 into 150 mm x […] cell culture dishes (Corning Inc., Cat. No. 430599). Transient transfection took place at 30-40% confluency according to FuGENE 6 Transfection Reagent (Roche, Cat. No. 11814 443 001).
Transfection Procedure: The FuGENE transfection 6 reagent (45 uL) was added to 1410 μL of media (DMEM, serum free without pen/strep) in a 15 mL conical tube and incubated at room temp for 5 minutes, followed by the addition of FAAH plasmid DNA (15 μg) (OriGene Cat. No. TC119221, Genbank Accession No. NM_001441.1, 0.67 ug/uL) and a further incubation of 15 minutes at room temperature. The resulting solution was added into one dish of 30-40% confluent COS-7 cells in a drop-wise manner. The COS-7 cell dish was subsequently incubated for 48 hours. The cells are then harvested.
Harvest procedure: Media was aspirated from the dishes and the cells rinsed with 10 mL PBS. The PBS was removed and 3 mL of PBS added to the dish. The dish was scraped to resuspend the cells, and the subsequent cell suspension collected into a 15 mL conical tube. The cells were pelleted by centrifugation at 1200 rpm for 5 minutes in a bench top centrifuge. PBS was removed and the cell pellet snap frozen in liquid nitrogen and stored at −80° C.
COS-7 cells —FAAH purification: • (1) Fractionation: Frozen cell pellets from transient transfections were thawed on ice and resuspended in 12.5 mM Hepes pH 8.0, 100 mM NaCl, 1 mM EDTA (10 mL/0.2 g cell pellet). The pellets were dounce homogenized and then sonicated to produce cell extract. The cell extract was subsequently centrifuged at 1000 g to remove cellular debris. The pellet was discarded and the supernatant centrifuged at 13,000 g for 20 minutes. The pellet contained membrane bound FAAH. The supernatant was discarded and the pellet resolubilized. • (2) Re-solubilization: The fraction of interest, (13,000 g, membrane fraction) was re-suspended in 2.3 mL re-suspension buffer (20 mM Hepes pH 7.8, 10% v/v Glycerol, 1 mM EDTA, 1% Triton X-100) and the sample incubated on ice for 1 hour and then centrifuged to remove any particulate matter. The supernatant containing solubilized human FAAH was aliquoted and snap frozen in liquid nitrogen and stored at −80° C. until use. • (3) Characterization: Protein Concentration determined by Bradford assay. • SDS gel and Western blot to confirm presence of FAAH • FAAH activity assay • Km determination-96-well assay • Linear dependence—96-well assay • Standard compound Ki determination—384-well assay
Human FAAH assay; Experimental Protocol: A 0.1 mg/mL Human FAAH solution was made up in FAAH reaction buffer, and 24 ul pipeted into a 384 well plate. To this was added 1 μL of a 3 fold serially diluted inhibitor from a DMSO stock solution. The FAAH solution and inhibitor were incubated for 30 minutes at room temperature. The FAAH reaction was initiated by the addition of 25 μL of 40 μM AMC Arachidonoyl Amide in FAAH reaction buffer, yielding a final reaction human FAAH preparation concentration of 0.05 mg/ml and AMC-Arachidonoyl substrate concentration of 20 μM, reaction volume 50 μL. The reaction was allowed to proceed for 4 hours at room temperature. The reaction was stopped by the addition of 25 μL 12 μM a-ketoheterocycle (Cayman Chemicals, catalogue #10435). The microtiter plate was read in the envision plate reader.
The raw fluorescence was plotted on the y axis and the inhibitor concentration on the x axis to give a dose response inhibition curve. The data was fitted to a single site competitive inhibition equation, fixing the Km for the human enzyme to 12 μM and 9 μM respectively.
For `O=C(O)c1ccc(OC2=NOC(c3ccc(Oc4ccccc4)cc3)C2)cn1` (racemic) [I-110], the Ki was no more than 100 nM.
Turning to `Cn1nccc1-c1ccc(OC2=NOC(C)(c3ccc(OC(F)(F)F)cc3)C2)cn1` (racemic) [I-241], the Ki was no more than 100 nM.
With `O=C(NCc1ccccc1)c1ccc([C@H]2CC(Oc3ccc(C(=O)O)nc3)=NO2)cc1` (racemic) [I-215] the figure was 100 to 1000 nM.
With `CNS(=O)(=O)c1ccc([C@H]2CC(Br)=NO2)cc1` (racemic) [I-207] the figure was no more than 100 nM.
With `Fc1ccc(OC2=NOC(c3ccc(Oc4ccccc4)cc3)C2)cc1` (single isomer, unassigned) [I-24] the figure was no less than 1000 nM; with `FC(F)(F)C1(c2ccc(Oc3ccccc3)cc2)CC(Br)=NO1` (racemic) [I-130], 100 to 1000 nM; with `COC(=O)c1cc(OC2=NOC(c3ccc(OC(F)(F)F)cc3)C2)ccn1` (racemic) [I-151], no more than 100 nM.
Consider `Cc1nnc(-c2cccc(OC3=NOC(c4ccc(OC(F)(F)F)cc4)C3)c2)o1` (racemic) [I-223], for which the inhibitory constant (Ki) is no more than 100 nM.
Then `c1ccc(Oc2ccc(C3CC(Oc4cnc5[nH]ccc5c4)=NO3)cc2)cc1` (racemic) [I-68], with no more than 100 nM; and `O=S(=O)(c1ccc([C@H]2CC(Br)=NO2)cc1)N1CCOCC1` (racemic) [I-205], with no more than 100 nM.
Consider `BrC1=NOC(CCCOc2ccccc2)C1` (single isomer, unassigned) [I-51], for which the Ki is no more than 100 nM.
Then `COc1ncc(OC2=NOC(c3ccc(OC(F)(F)F)cc3)C2)cc1F` (racemic) [I-136], with 100 to 1000 nM.
With `Cc1ccc(Oc2ccc(C3CC(Br)=NO3)cc2)nn1` (single isomer, unassigned) [I-18] the figure was 100 to 1000 nM; with `CC1C(Br)=NOC1c1ccc(Oc2ccccc2)cc1` (stereo not shown) [I-82], 100 to 1000 nM; with `O=c1ccccn1C1=NOC(c2ccc(Oc3ccccc3)cc2)C1` (single isomer, unassigned) [I-33], no less than 1000 nM.
With `FC(F)(F)Oc1ccc(C2CC(Oc3ccc(-c4ccc[nH]4)nc3)=NO2)cc1` (racemic) [I-173], the Ki was no more than 100 nM.
With `OCCNC1=NOC(c2ccc(Oc3ccccc3)cc2)C1` (racemic) [I-243] the figure was 100 to 1000 nM.
Then `COC(=O)CCc1ccc(OC2=NOC(c3ccc(Oc4ccccc4)cc3)C2)cn1` (racemic) [I-98], with no more than 100 nM; and `FC(F)(F)Oc1ccc(C2CC(Oc3cccc(-c4nnn[nH]4)c3)=NO2)cc1` (racemic) [I-174], with 100 to 1000 nM; and `O=C(NCCO)c1ccc(OC2=NOC(c3ccc(OC(F)(F)F)cc3)C2)cn1` (racemic) [I-109], with no more than 100 nM.
Then `O=C(O)c1cc(OC2=NOC(c3ccc(OC(F)(F)F)cc3)C2)ccn1` (racemic) [I-152], with no more than 100 nM; and `Cn1cc(-c2ccc(OC3=NOC(C)(c4ccc(OC(F)(F)F)cc4)C3)cn2)cn1` (racemic) [I-240], with no more than 100 nM.
As to `CN(C)S(=O)(=O)c1cccc(OC2=NOC(C)(c3ccc(OC(F)(F)F)cc3)C2)c1` (racemic) [I-233], the inhibition constant (Ki) is no less than 1000 nM.
On to `FC(F)(F)c1ccc(C2CC(Oc3cncnc3)=NO2)cc1` (racemic) [I-168], for which the Ki was 100 to 1000 nM.
With `O=C(O)c1cccc(OC2=NOC(c3ccc(OC(F)(F)F)cc3)C2)c1` (racemic) [I-176] the figure was no less than 1000 nM; with `CC1(c2ccc(OC(F)(F)F)cc2)CC(Br)=NO1` (racemic) [I-75], no more than 100 nM; with `N#Cc1ccc(OC2=NOC(c3ccc(Oc4ccccc4)cc3)C2)cc1` (single isomer, unassigned) [I-27], no more than 100 nM.
With `NC(=O)c1cncc(OC2=NOC(c3ccc(OC(F)(F)F)cc3)C2)c1` (racemic) [I-53] the figure was 100 to 1000 nM; with `O=C(O)CCc1ccc(OC2=NOC(c3ccc(Oc4ccccc4)cc3)C2)cn1` (racemic) [I-99], no more than 100 nM; with `Cn1nc(C(F)(F)F)cc1-c1ccc(OC2=NOC(c3ccc(OC(F)(F)F)cc3)C2)cn1` (racemic) [I-191], no less than 1000 nM.
Then `CSc1ccc(OC2=NOC(c3ccc(C(F)(F)F)cc3)C2)cn1` (racemic) [I-238], with no more than 100 nM.
As for `BrC1=NOC(c2ccc(Oc3ncccn3)cc2)C1` (single isomer, unassigned) [I-13], the inhibitory constant (Ki) was no more than 100 nM.
Turning to `Clc1ccc([C@H]2CC(Br)=NO2)cc1` (racemic) [I-3], the inhibitory constant (Ki) was no more than 100 nM.
Consider `COC(=O)c1cccc(OC2=NOC(c3ccc(Oc4ccccc4)cc3)C2)c1` (racemic) [I-61], for which the inhibition constant Ki was no more than 100 nM.
As for `O=C(O)c1ccc(-c2ccc(OC3=NOC(c4ccc(OC(F)(F)F)cc4)C3)cn2)o1` (racemic) [I-188], the inhibition constant (Ki) was no less than 1000 nM.
Then `Fc1cc([C@H]2CC(Br)=NO2)ccc1OC(F)(F)F` (racemic) [I-120], with no more than 100 nM; and `Cc1nnc(-c2cccc(OC3=NOC(C)(c4ccc(OC(F)(F)F)cc4)C3)c2)o1` (racemic) [I-222], with no more than 100 nM; and `Cn1nnc(-c2ccc(OC3=NOC(c4ccc(OC(F)(F)F)cc4)C3)cc2)n1` (racemic) [I-200], with 100 to 1000 nM.
As to `CC(=O)Nc1ccc(OC2=NOC(c3ccc(Oc4ccccc4)cc3)C2)cn1` (racemic) [I-94], the inhibition constant Ki is no more than 100 nM.
Turning to `FC(F)(F)Oc1ccc(C2CC(Oc3cncc(Br)c3)=NO2)cc1` (racemic) [I-71], the Ki was no more than 100 nM.
Then `BrC1=NOC(CCc2ccccc2)C1` (single isomer, unassigned) [I-49], with 100 to 1000 nM.
Then `CC1(c2ccc(OC(F)(F)F)cc2)CC(Oc2cncc(-c3n[nH]c(=O)o3)c2)=NO1` (racemic) [I-231], with 100 to 1000 nM.
For `Fc1ccc(OC2=NOC(c3ccc(Oc4ccccc4)cc3)C2)cc1C(F)(F)F` (racemic) [I-60], the Ki is no less than 1000 nM.
With `FC(F)(F)Oc1ccc(C2CC(Oc3ccc(-c4ncco4)nc3)=NO2)cc1` (racemic) [I-163] the figure was no more than 100 nM.
Consider `CN(C)S(=O)(=O)c1ccc([C@H]2CC(Oc3ccc(S(C)(=O)=O)nc3)=NO2)cc1` (racemic) [I-213], for which the inhibition constant Ki was no more than 100 nM.
With `CC1(c2ccc(OC(F)(F)F)cc2)CC(Oc2ccc(-c3nccs3)nc2)=NO1` (racemic) [I-164] the figure was no more than 100 nM.
Turning to `CC1(c2ccc(OC(F)(F)F)cc2)CC(Oc2ccc(S(C)(=O)=O)cc2)=NO1` (racemic) [I-234], the inhibition constant Ki fell in the range of 100 to 1000 nM.
In the case of `FC(F)(F)Oc1ccc(C2CC(Br)=NO2)cc1` (racemic) [I-14, 3-bromo-5-(4-(trifluoromethoxy)phenyl)-4,5-dihydroisoxazole], the inhibition constant (Ki) is no more than 100 nM.
With `FC(F)(F)c1ccc(C2CC(Oc3cccc(-c4nnco4)c3)=NO2)cc1` (racemic) [I-217], the Ki was no more than 100 nM.
